Experimental data taken from ChEMBL document CHEMBL1139702, “4'-Alkoxyl substitution enhancing the anti-mitotic effect of 5-(3',4',5'-substituted)anilino-4-hydroxy-8-nitroquinazolines as a novel class of anti-microtubule agents” (Bioorg Med Chem Lett, 2006).
Calls of active or inactive are those of the source. No cut-off for these calls is given here.

Columns and labels:
HGC-27 [1] = experiment: Antiproliferative activity against HGC27 cells at 50 uM by MTT assay; format: functional, cell-based; details: Homo sapiens
HGC-27 [2] = experiment: Cell cycle arrest in HGC27 cells by accumulation at G2/M phase at 50 uM after 24 hrs; format: functional; details: Homo sapiens, HGC-27, 24 h
A549 [3] = experiment: Cell cycle arrest in A549 cells by accumulation at G2/M phase at 50 uM after 24 hrs; format: functional, cell-based; details: Homo sapiens
A549 [4] = experiment: Antiproliferative activity against A549 cells by MTT assay; format: functional, cell-based; details: Homo sapiens
HGC-27 [5] = experiment: Antiproliferative activity against HGC27 cells by MTT assay; format: functional, cell-based; details: Homo sapiens

Structure (SMILES)	Activity (HGC-27 [1])	further results
COC(=O)/C=C\c1ccc(C(=O)OCCOc2ccc(Nc3ccc([N+](=O)[O-])c4ncnc(O)c34)cc2)cc1	Active	
O=[N+]([O-])c1ccc(Nc2ccc(OCCCN3CCOCC3)cc2)c2c(O)ncnc12	Active	
O=[N+]([O-])c1ccc(Nc2ccc(OCc3ccccc3)c(Cl)c2)c2c(O)ncnc12	Active	
COc1cc(Nc2ccc([N+](=O)[O-])c3ncnc(O)c23)cc(OC)c1OC	Active	inhibition at 50 µM (HGC-27 [2]): 81%; Activity (A549 [3]): Active
COc1ccc(Nc2ccc([N+](=O)[O-])c3ncnc(O)c23)cc1Cl		IC50 (A549 [4]): 20 µM; IC50 (HGC-27 [5]): 20 µM
